# Reference: patent publication US11957761B2, “Compounds having α4β7 integrin inhibition activity” (priority 2021, dated 2024)
# Tests used:
# [1] = Pharmacokinetics in rats, single i.v. bolus (Example 11); format: in vivo, Sprague Dawley or Wistar rats; details: male, plasma, iv, rat, 511 nmol/kg
# Procedure: Sprague Dawley or Wistar rats (males with a body weight of approximately 250-350 g) were given a single intravenous (i.v. bolus) injection of the peptide to be tested. […] At each sampling time point, samples from the rats were drawn by tail cut. The dosing vehicle was 20 mM phosphate buffer, 260 mM mannitol, pH 7.
# in vivo [2] = details: male, rat, plasma, iv, 510 nmol/kg
# Procedure: Sprague Dawley or Wistar rats (males with a body weight of approximately 250-350 g) were given a single intravenous (i.v. bolus) injection of the peptide to be tested. Following i.v. administration of compound 1 (dose 510 nmol/kg, dosing volume […]), blood samples were drawn at 10 min, 15 min, 40 min, 1 h, 2 h, 4 h, 8 h, 24 h post-dose. At each sampling time point, samples from the rats were drawn by tail cut. The dosing vehicle was 20 mM phosphate buffer, 260 mM mannitol, pH 7.
# (§1) Plasma samples were analyzed after protein precipitation by liquid chromatography mass spectrometry (LC-MS/MS). Individual plasma concentrations were used for calculation of the pharmacokinetic parameters using the non-compartmental approach in Phoenix WinNonlin 8.3 or a later version. Plasma terminal elimination half-life (T½) was determined as ln(2)/λz where λz is the magnitude of the slope of the log linear regression of the log concentration versus time profile during the terminal phase. AUCinf is the area under the plasma concentration−time curve extrapolated to infinity (AUCinf=AUClast+Clast/λz, where Clast is the last observed plasma concentration). C0 is the plasma concentration at the dosing time intercept and is back extrapolated by log-linear regression of the first two data points.
# [3] = Pharmacokinetics in Beagle dogs, single s.c. and i.v. injection (Example 5); format: in vivo; details: male, plasma, 200 ug/kg, dog
# Excerpt: The dosing vehicle was PBS buffer, pH 7.
# in vivo [4] = details: male, Beagle, dog, plasma, sc
# Procedure: Beagle dogs (males with a body weight of approximately 10-12 kg) were given a single subcutaneous (s.c.) injection of the peptides to be tested. Following s.c. administration of the selected compounds (dose 10, 20, 50, 100, 200 and 400 μg/kg), dosing volume 0.1 m/kg, blood samples were drawn at 0, 3, 6, 8, 12, 24, 48, 72, 96, 120, 144, 168, 192, 216, 240, 264, 288, 312, 336, 576, 744, 936, 1104 and 1272 hours.
# Blood was sampled through a venflon on day 1 (excluding the 8-hour timepoint). At the 8-hour sampling time, and the sampling timepoints hereafter, the blood was be sampled through v. jugularis with a vacutainer and vacutainer needle. The dosing vehicle was PBS buffer, pH 7.
# as §1, with “is” for “is the plasma concentration at the dosing time intercept and is”
# Integrin α4β7-MAdCAM-1 = Integrin α4β7-MAdCAM-1 (Homo sapiens, UniProt P13612+P26010); assay: cell-based
# Integrin α4β7-MAdCAM-1, sequence (P13612 34-1032): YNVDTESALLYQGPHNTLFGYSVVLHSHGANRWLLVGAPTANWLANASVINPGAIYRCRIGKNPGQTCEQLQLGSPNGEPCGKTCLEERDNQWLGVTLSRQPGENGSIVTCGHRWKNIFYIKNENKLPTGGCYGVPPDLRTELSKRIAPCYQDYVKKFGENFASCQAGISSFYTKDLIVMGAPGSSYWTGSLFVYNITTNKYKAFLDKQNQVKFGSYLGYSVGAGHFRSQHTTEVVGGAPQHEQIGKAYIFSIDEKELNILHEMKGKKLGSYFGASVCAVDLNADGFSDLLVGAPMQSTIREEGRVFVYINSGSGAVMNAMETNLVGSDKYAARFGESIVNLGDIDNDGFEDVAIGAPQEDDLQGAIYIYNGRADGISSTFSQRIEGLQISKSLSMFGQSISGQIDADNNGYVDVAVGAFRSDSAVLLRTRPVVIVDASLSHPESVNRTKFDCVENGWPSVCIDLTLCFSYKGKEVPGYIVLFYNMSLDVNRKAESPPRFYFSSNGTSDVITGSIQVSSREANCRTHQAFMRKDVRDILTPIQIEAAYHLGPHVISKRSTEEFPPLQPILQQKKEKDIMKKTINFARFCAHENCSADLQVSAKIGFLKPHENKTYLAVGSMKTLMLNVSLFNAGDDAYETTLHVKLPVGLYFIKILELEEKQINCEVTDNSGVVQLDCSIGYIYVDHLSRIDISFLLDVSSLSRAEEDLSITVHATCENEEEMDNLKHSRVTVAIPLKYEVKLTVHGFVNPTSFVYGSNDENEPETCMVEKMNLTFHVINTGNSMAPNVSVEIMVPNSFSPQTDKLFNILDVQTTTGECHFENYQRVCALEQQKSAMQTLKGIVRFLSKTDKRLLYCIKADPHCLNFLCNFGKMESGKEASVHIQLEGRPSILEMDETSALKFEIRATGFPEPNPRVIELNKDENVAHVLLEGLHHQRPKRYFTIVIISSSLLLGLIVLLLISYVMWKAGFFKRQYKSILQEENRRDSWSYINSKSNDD
# Integrin α4β7-MAdCAM-1, sequence (P26010 20-798): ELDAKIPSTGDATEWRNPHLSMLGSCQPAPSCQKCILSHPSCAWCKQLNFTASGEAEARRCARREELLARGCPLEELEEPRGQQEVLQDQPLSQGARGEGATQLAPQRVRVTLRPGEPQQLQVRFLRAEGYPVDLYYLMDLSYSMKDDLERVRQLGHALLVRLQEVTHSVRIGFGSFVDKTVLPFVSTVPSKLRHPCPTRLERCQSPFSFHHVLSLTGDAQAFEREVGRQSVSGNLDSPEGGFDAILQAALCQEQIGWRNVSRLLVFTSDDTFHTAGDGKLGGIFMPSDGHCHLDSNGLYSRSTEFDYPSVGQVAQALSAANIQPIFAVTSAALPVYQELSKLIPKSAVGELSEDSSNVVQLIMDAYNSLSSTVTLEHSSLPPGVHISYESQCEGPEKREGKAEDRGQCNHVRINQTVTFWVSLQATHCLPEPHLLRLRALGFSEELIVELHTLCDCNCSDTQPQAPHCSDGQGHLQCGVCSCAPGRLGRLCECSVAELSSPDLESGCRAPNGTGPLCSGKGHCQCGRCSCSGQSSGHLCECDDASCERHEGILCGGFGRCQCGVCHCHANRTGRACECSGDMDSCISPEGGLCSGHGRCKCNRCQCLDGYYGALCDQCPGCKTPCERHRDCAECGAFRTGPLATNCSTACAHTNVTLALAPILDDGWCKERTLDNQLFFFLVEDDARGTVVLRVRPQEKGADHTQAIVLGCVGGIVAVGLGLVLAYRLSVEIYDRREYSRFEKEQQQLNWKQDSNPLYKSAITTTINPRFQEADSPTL
# Procedure: Recombinant human MAdCAM-1 (rhMAdCAM-1) was obtained from R&D systems (Cat #6056-MC-050).
# Binding buffer (1.5 mM CaCl2, 1 mM MnCl2, 100 mM NaCl, 50 mM TRIS-HCl (pH 7.5)
# Cells: The human B lymphocyte cell line RPMI 8866 was obtained from Merck via ECACC (European collection of authenticated cell cultures) (Cat #95041316 and lot #14G012).
# Day 0: RPMI 8866 cells were split to a concentration of 500.000 cells/mL.
# A Maxisorp plate was coated with 100 μL/well of 1 μg/mL rhMAdCAM-1 in coating buffer. Plate was sealed with TopSeal A plus and incubated at 4° C. overnight.
# Day 1: The plate was washed twice with 150 μL wash buffer and then blocked with 250 μL/well blocking buffer (1% BSA in PBS) for one hour at room temperature. CFSE Celltrace stock solution was prepared immediately prior to use by adding 18 μL of DMSO to one vial of CellTrace™ reagent and mixing well. […]
# The cells were pelleted by centrifugation and resuspended in fresh pre-warmed complete culture medium and the cells were counted. […]
# After the last wash, 100 μL of PBS (without Mg^2+ and Ca^2+) was added to each well and the fluorescence was read (Ex485/Em535) using a plate reader (Envision 2105 Multimode plate reader). To calculate the concentration response, the fluorescence value of control wells not containing cells was subtracted from each test well.
# IC50 values were calculated using 4-parameter nonlinear fit of the data.
smiles,measurement,setting,value
"CC[C@H](C)[C@@H]1NC(=O)[C@H](CC(=O)O)NC(=O)[C@H](CC(C)C)NC(=O)c2ccc(-c3ccc(N4CCN(C(=O)c5ccccc5-c5ccccc5C(=O)N5CCN(c6ccc(-c7ccc8cc7CNC(=O)[C@@H]7CCCN7[C@H](C(=O)NC(C)(C)C)[C@H](C)NC(=O)[C@H]([C@@H](C)CC)NC(=O)[C@H](CC(=O)O)NC(=O)[C@H](CC(C)C)NC8=O)cc6)CC5)CC4)cc3)c(c2)CNC(=O)[C@@H]2CCCN2[C@H](C(=O)NC(C)(C)C)[C@H](C)NC1=O [Compound 1, 2,2′-((S,S,S,S,S,S,12S,8S, 11S,14S,17S,18S)-((([1,1′-biphenyl]-2,2′-dicarbonyl)bis(piperazine-4,1-diyl))bis(4,1-phenylene))bis(14-((S)-sec-butyl)-18-(tert-butylcarbamoyl)-8-isobutyl-17-methyl-2,6,9,12,15-pentaoxo-3,7,10,13,16-pentaaza-1(2,1)-pyrrolidina-5(1,3)-benzenacyclooctadecaphane-56,11-diyl))diacetic acid]",AUC(0-inf),[1],34 µM·h
same,C0,[1],9020 nM
same,half-life,[1],7.88 h
same,AUC(0-inf),in vivo [2],32.2 µM·h
same,half-life,in vivo [2],5.61 h
same,AUC(0-inf),[3]; IV,19.3 µM·h
same,Cmax,[3]; IV,743 nM
same,half-life,[3]; IV,53 h
same,AUC(0-inf),[3]; SC,21.8 µM·h
same,Cmax,[3]; SC,127 nM
same,half-life,[3]; SC,95.2 h
same,AUC(0-inf),in vivo [4]; 10 ug/kg,2.46 µM·h
same,Cmax,in vivo [4]; 10 ug/kg,18.1 nM
same,Tmax,in vivo [4]; 10 ug/kg,20 h
same,half-life,in vivo [4]; 10 ug/kg,340 h
same,AUC(0-inf),in vivo [4]; 20 ug/kg,5.68 µM·h
same,Cmax,in vivo [4]; 20 ug/kg,43.1 nM
same,Tmax,in vivo [4]; 20 ug/kg,20 h
same,half-life,in vivo [4]; 20 ug/kg,460 h
same,AUC(0-inf),in vivo [4]; 50 ug/kg,11.6 µM·h
same,Cmax,in vivo [4]; 50 ug/kg,102 nM
same,Tmax,in vivo [4]; 50 ug/kg,20 h
same,half-life,in vivo [4]; 50 ug/kg,340 h
same,AUC(0-inf),in vivo [4]; 100 ug/kg,58.6 µM·h
same,Cmax,in vivo [4]; 100 ug/kg,504 nM
same,Tmax,in vivo [4]; 100 ug/kg,20 h
same,half-life,in vivo [4]; 100 ug/kg,230 h
same,AUC(0-inf),in vivo [4]; 200 ug/kg,72.5 µM·h
same,Cmax,in vivo [4]; 200 ug/kg,417 nM
same,Tmax,in vivo [4]; 200 ug/kg,20 h
same,half-life,in vivo [4]; 200 ug/kg,230 h
same,AUC(0-inf),in vivo [4]; 400 ug/kg,158 µM·h
same,Cmax,in vivo [4]; 400 ug/kg,927 nM
same,Tmax,in vivo [4]; 400 ug/kg,20 h
same,half-life,in vivo [4]; 400 ug/kg,260 h
same,IC50,Integrin α4β7-MAdCAM-1,35 nM
